{"source": "patent US20260265689A1", "about": "“BIOHYBRID ROBOT INCLUDING RETINAL/BRAIN ORGANOID, MOTOR NERVE SPHEROID, AND MUSCLE BUNDLE, AND MANUFACTURING METHOD THEREFOR” (SOGANG UNIVERSITY RESEARCH & BUSINESS DEVELOPMENT FOUNDATION, priority 2023, published 2026)", "key": {"[1]": {"tested_on": "brain organoids", "assay": "Electrophysiological signal measurement of retinal/brain organoid conjugates using a multi-electrode array", "assay_type": "cell-based, human", "details": "100 μM glutamate mixed into the co-culture medium", "procedure": "The formation of conjugates of brain organoids and retinal organoids in Examples 1-3 above was confirmed through signal measurement using a multi-electrode array. Retinal/brain organoids were placed on electrodes of the multi-electrode array for signal measurement, and then the generation of electrophysiological signals was measured while light was applied to the retinal organoids. In addition, glutamate was added as a neurotransmitter to the co-culture medium used in the multi-electrode array, and electrophysiological signals generated from brain organoids were measured."}, "[2]": {"tested_on": "brain organoid of the versatile biohybrid robot", "assay": "Movement of the versatile biohybrid robot in co-culture media", "set-up": "species or system human", "details": "brain organoid stimulated using glutamate; 0.27 cm/min before stimulation"}}}
{"molecule": "N[C@@H](CCC(=O)O)C(=O)O", "note": "[glutamate]", "values": [{"measurement": "electrophysiological signals generated by stimulating brain organoids", "setting": "[1]", "value": "transmitted to the brain organoids"}, {"measurement": "movement of the biohybrid robot after stimulation", "setting": "[2]", "value": 0.52, "unit": "cm/min"}]}
